pKd: −log10 of the molar value. Ends that are not written are not given here.
Molecular target: T1, WW2 domain of human AIP4 (Homo sapiens, UniProt Q96J02)
T1 construct: The gene (114 bp) encoding the WW2 domain of human AIP4; Ssp DnaB intein (pTWIN1) (N, cleaved yes); made in house
Test: NMR titration (2D 1H-15N HSQC chemical shift perturbation) of WW2 domain with LMP2A constructs
Type: binding

T1 sequence (Q96J02 359-391): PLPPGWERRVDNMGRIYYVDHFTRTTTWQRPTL

PPPPY [PY peptide]
pKd: 3.41
